Assay results: patent US9707229B2, “Compositions and methods for treating an infection” (CMPD LICENSING, LLC, priority 2015, dated 2017)

Columns and labels:
Assay type in all cases: cell-based
Aspergillus flavus = assay: Expected efficacy of antifungal agents
Candida species = assay: Expected efficacy of antifungal agents
[1] = system: Trichophyton mentagrophytes; assay: Expected efficacy of antifungal agents
Aspergillus fumigatus = assay: Expected efficacy of antifungal agents
Blastomyces dermatitidis = assay: Expected efficacy of antifungal agents
Coccidioides immitis = conditions: expected efficacy
Trichophyton rubrum = assay: Expected efficacy of antifungal agents
Histoplasma duboisii = conditions: expected efficacy
Cryptococcus neoformans = assay: Expected efficacy of antifungal agents
[2] = system: Paracoccidioides brasiliensis; assay: Expected efficacy of antifungal agents
Sporothrix schenckii = assay: Expected efficacy of antifungal agents
Scedosporium apiospermum = assay: Expected efficacy of antifungal agents
Aspergillus niger = assay: Expected efficacy of antifungal agents
Fusarium species = assay: Expected efficacy of antifungal agents
Aspergillus terreus = assay: Expected efficacy of antifungal agents
Leishmania donovani = assay: Expected efficacy of antifungal agents
Histoplasma capsulatum = conditions: expected efficacy
Leishmania infantum = assay: Expected efficacy of antifungal agents

Itraconazole
yes: efficacy against Aspergillus flavus (Aspergillus flavus) | efficacy against Candida species (Candida species) | efficacy against Trichophyton mentagrophytes [1] | efficacy against Aspergillus fumigatus (Aspergillus fumigatus) | efficacy against Blastomyces dermatitidis (Blastomyces dermatitidis) | efficacy against Coccidioides immitis (Coccidioides immitis) | efficacy against Trichophyton rubrum (Trichophyton rubrum) | efficacy against Histoplasma duboisii (Histoplasma duboisii) | efficacy against Cryptococcus neoformans (Cryptococcus neoformans) | efficacy against Paracoccidioides brasiliensis [2] | efficacy against Sporothrix schenckii (Sporothrix schenckii)

C[C@@H](c1ncncc1F)[C@](O)(Cn1cncn1)c1ccc(F)cc1F [Voriconazole]
yes: efficacy against Scedosporium apiospermum (Scedosporium apiospermum) | efficacy against Aspergillus flavus (Aspergillus flavus) | efficacy against Aspergillus niger (Aspergillus niger) | efficacy against Candida species (Candida species) | efficacy against Fusarium species (Fusarium species) | efficacy against Aspergillus fumigatus (Aspergillus fumigatus) | efficacy against Aspergillus terreus (Aspergillus terreus)

C[C@@H]1[C@H](O)[C@@H](C)/C=C/C=C/C=C/C=C/C=C/C=C/C=C/[C@H](O[C@@H]2O[C@H](C)[C@@H](O)[C@H](N)[C@@H]2O)C[C@@H]2O[C@](O)(C[C@@H](O)C[C@@H](O)[C@H](O)CC[C@@H](O)C[C@@H](O)CC(=O)O[C@H]1C)C[C@H](O)[C@H]2C(=O)O [Amphotericin]
yes: efficacy against Leishmania donovani (Leishmania donovani) | efficacy against Aspergillus flavus (Aspergillus flavus) | efficacy against Aspergillus niger (Aspergillus niger) | efficacy against Candida species (Candida species) | efficacy against Histoplasma capsulatum (Histoplasma capsulatum) | efficacy against Aspergillus fumigatus (Aspergillus fumigatus) | efficacy against Blastomyces dermatitidis (Blastomyces dermatitidis) | efficacy against Coccidioides immitis (Coccidioides immitis) | efficacy against Leishmania infantum (Leishmania infantum) | efficacy against Aspergillus terreus (Aspergillus terreus) | efficacy against Cryptococcus neoformans (Cryptococcus neoformans) | efficacy against Paracoccidioides brasiliensis [2]
